{"source": "paper PMC5501099", "about": "(Malaria Journal, 2017)", "tested_on": "Plasmodium vivax", "test": "Effect of ivermectin on Plasmodium vivax sporogony in Anopheles minimus", "assay_type": "in vivo", "details": "An. minimus", "method": "Mosquitoes reared in Bangkok were transported to a field laboratory at the Mae Sot Malaria Medical Clinic in Mae Sot, Tak Province. Plasmodium vivax-infected blood was collected from malaria-infected patients reporting to malaria clinics operated by the Thailand Ministry of Public Health in Tak Province (protocol WRAIR#1949A). Patient plasma was removed and replaced by centrifuging blood samples at 3000 rpm for 5 min, plasma removed and blood washed with RPMI twice, and malaria-naïve AB+ serum was added at a 50:50 ratio [30]. One millilitre of blood was fed to each group of 100 mosquitoes in 0.5-l cardboard containers and unfed mosquitoes were removed. Mosquitoes were maintained on 10% sucrose ad libitum at the Mae Sot field insectary (25 ± 1 °C and 70 ± 10% relative humidity, light 12 h:12 h dark photoperiod). Once infected with P. vivax, blood-fed mosquitoes were securely transported back to Bangkok and maintained in a separate insectary (25 ± 1 °C and 70 ± 10% relative humidity, light 12 h:12 h dark photoperiod).\nUnfed mosquitoes were removed from the feeding containers after each blood meal. Mosquitoes from the DPI 0 and DPI −3 feeding schedules were dissected 7 days post parasite ingestion to enumerate oocysts. Midguts were dissected with minuten pins into saline on a microscope slide and stained with 0.4% mercurochrome and viewed at 40× magnification with a compound microscope to determine oocyst prevalence and intensity. Approximately 25 mosquitoes were dissected from each control and treatment group at each dissection time point. Dissectors were blinded to treatment groups. Due to lack of initial mosquito blood feeding and mosquitoes lost to experimental mortality and oocyst dissections at day 7 post parasite feeding, not enough mosquitoes remained at day 14 post parasite feeding to determine sporozoite prevalence for the DPI −3 and 0 experiments. Mosquitoes from the DPI 6 and 9 experiments were dissected 14 days post parasite ingestion to determine sporozoite prevalence. […]\nA non-linear mixed effects model with probit analysis was used to calculate LC50, LC25 and LC5 values with Statistical Analysis Software (SAS Institute Inc, Cary, NC, USA) as described previously. Hazard ratios for mosquito mortality at day 7 post blood meal were calculated using Poisson regression analysis with STATA version 12.1 (StataCorp LLC, College Station, TX, USA). […] To determine if P. vivax infection altered mosquito survivorship post-ivermectin ingestion survival data were analysed by the Mantel–Cox method. The Fishers Exact, Mann–Whitney U, and survival analysis data were analysed with Prism 7 (GraphPad Software Inc, San Diego, CA, USA).", "data": [{"substance": "ivermectin", "values": [{"measurement": "P. vivax oocyst prevalence reduced by", "setting": "ivermectin LC5 (6.7 ng/ml) co-ingested at DPI 0", "value": 31.3, "unit": "%"}, {"measurement": "P. vivax mean oocyst intensity reduced by", "setting": "ivermectin LC5 at DPI 0", "value": 35.3, "unit": "%"}, {"measurement": "P. vivax oocyst prevalence reduced by", "setting": "ivermectin LC25 (11.3 ng/ml) co-ingested at DPI 0", "value": 58.8, "unit": "%"}, {"measurement": "P. vivax mean oocyst intensity reduced by", "setting": "ivermectin LC25 at DPI 0, P = 0.1018", "value": 28.5, "unit": "%"}]}]}
